According to PMC10507085, “Pharmacological inhibition of TBK1/IKKε blunts immunopathology in a murine model of SARS-CoV-2 infection” (Nature Communications, 2023):

Tests used:
Test in all cases: biochemical
Parameters in all cases: KINOMEscan competition binding, DNA-tagged kinase against immobilised ligand, qPCR read-out
Details in all cases: read-out: Percent Control
[1] = target: FGFR4 (Homo sapiens, UniProt P22455)
[2] = target: IKBKB (Homo sapiens, UniProt O14920)
[3] = target: PIK3C3 (Homo sapiens, UniProt Q8NEB9)
[4] = target: TYRO3 (Homo sapiens, UniProt Q06418)
[5] = target: FLT4 (Homo sapiens, UniProt P35916)
[6] = target: TNNI3K (Homo sapiens, UniProt Q59H18)
[7] = target: ERBB3 (Homo sapiens, UniProt P21860)
[8] = target: CDKL3 (Homo sapiens, UniProt Q8IVW4)
[9] = target: ROCK2 (Homo sapiens, UniProt O75116)
[10] = target: PAK2 (Homo sapiens, UniProt Q13177)
[11] = target: ULK3 (Homo sapiens, UniProt Q6PHR2)
[12] = target: T1, RPS6KA4(Kin.Dom.2-C-terminal) (Homo sapiens, UniProt O75676)
T1 construct: Kin.Dom.2 C-terminal

[13] = target: T2, PFCDPK1(P.falciparum) (Plasmodium falciparum, UniProt P62344)
T2 construct: gene CDPK1

[14] = target: CSF1R-autoinhibited (Homo sapiens, UniProt P07333)
[15] = target: TRPM6 (Homo sapiens, UniProt Q9BX84)
[16] = target: SBK1 (Homo sapiens, UniProt Q52WX2)
[17] = target: BRAF (Homo sapiens, UniProt P15056)
[18] = target: PIP4K2C (Homo sapiens, UniProt Q8TBX8)
[19] = target: CAMK1D (Homo sapiens, UniProt Q8IU85)
[20] = target: MAPK14 (Homo sapiens, UniProt Q16539)
Chain of MAPK14 (Q16539 whole entry): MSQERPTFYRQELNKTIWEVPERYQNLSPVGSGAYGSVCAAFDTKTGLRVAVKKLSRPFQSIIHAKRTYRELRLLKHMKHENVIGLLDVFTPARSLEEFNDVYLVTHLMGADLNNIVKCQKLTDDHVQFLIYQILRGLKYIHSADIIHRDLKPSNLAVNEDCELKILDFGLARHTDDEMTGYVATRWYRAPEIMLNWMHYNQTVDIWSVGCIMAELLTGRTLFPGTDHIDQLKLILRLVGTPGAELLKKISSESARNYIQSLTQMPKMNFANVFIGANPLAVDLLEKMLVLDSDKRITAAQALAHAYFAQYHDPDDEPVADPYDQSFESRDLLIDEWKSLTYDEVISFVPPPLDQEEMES

Chain of PIK3C3 (Q8NEB9 whole entry): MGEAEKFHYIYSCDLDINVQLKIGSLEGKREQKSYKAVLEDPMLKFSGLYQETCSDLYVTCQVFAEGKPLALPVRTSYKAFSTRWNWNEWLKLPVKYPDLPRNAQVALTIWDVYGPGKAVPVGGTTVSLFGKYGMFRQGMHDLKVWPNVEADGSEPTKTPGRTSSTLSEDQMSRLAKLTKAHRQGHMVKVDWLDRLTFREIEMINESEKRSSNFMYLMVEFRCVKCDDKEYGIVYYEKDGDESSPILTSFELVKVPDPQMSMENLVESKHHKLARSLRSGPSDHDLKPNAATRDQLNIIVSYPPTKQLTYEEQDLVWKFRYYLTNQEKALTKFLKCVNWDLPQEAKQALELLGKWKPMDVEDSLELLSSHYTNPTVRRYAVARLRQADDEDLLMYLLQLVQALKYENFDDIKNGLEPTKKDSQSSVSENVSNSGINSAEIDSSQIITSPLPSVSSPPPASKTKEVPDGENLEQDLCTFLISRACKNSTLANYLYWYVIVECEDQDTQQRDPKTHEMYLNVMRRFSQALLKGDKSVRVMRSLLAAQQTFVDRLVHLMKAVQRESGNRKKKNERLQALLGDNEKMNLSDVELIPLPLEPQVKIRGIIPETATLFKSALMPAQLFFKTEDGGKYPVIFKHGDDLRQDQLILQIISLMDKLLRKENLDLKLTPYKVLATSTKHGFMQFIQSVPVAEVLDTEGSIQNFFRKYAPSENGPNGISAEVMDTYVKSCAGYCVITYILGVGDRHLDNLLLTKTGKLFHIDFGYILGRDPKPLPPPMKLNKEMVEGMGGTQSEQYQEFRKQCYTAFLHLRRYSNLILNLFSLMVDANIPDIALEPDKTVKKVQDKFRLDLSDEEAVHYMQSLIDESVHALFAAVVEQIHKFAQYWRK
Chain of TNNI3K (Q59H18 whole entry): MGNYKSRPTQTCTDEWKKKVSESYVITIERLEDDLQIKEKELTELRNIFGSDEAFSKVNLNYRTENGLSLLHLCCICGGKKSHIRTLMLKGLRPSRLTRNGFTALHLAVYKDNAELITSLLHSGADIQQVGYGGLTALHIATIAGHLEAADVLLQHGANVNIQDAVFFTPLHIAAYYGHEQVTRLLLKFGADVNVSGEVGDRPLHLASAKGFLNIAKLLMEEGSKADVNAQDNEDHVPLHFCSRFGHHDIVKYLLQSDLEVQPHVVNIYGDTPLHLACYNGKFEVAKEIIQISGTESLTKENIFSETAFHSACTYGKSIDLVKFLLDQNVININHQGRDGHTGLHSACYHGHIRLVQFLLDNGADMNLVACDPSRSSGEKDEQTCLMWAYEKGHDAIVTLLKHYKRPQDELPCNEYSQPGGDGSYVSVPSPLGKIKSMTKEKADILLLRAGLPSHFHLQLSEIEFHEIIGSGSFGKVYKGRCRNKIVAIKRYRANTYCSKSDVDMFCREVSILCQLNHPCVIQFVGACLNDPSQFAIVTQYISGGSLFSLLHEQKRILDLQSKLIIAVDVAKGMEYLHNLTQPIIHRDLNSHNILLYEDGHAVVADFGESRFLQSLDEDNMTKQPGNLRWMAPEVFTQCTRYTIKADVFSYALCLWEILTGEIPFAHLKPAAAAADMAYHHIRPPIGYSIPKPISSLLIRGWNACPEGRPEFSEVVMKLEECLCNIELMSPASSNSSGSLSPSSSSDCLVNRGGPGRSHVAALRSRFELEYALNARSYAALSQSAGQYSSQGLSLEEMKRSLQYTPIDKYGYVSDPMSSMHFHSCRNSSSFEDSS
Chain of PIP4K2C (Q8TBX8 whole entry): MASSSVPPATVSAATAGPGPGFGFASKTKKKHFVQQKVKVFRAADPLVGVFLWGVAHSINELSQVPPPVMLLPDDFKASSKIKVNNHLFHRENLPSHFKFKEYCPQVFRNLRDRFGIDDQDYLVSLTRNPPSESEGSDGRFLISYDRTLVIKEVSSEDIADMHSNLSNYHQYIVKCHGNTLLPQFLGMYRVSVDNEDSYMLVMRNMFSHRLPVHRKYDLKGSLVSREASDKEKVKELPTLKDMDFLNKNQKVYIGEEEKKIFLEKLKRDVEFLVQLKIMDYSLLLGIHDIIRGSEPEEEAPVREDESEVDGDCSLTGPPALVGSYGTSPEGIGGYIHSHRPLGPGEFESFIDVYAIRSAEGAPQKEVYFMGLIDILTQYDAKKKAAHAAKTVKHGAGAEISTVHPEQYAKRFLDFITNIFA
Chain of CAMK1D (Q8IU85 whole entry): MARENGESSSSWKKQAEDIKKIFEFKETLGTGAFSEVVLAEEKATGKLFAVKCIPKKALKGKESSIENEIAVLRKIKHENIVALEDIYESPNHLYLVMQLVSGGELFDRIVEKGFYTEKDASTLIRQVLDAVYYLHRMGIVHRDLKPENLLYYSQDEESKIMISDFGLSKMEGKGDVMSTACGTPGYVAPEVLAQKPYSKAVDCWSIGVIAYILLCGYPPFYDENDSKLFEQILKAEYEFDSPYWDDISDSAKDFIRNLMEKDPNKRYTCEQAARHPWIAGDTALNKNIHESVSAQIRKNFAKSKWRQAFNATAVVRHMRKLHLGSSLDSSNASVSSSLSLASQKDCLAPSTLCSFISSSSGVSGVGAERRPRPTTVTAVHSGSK
Chain of ULK3 (Q6PHR2 whole entry): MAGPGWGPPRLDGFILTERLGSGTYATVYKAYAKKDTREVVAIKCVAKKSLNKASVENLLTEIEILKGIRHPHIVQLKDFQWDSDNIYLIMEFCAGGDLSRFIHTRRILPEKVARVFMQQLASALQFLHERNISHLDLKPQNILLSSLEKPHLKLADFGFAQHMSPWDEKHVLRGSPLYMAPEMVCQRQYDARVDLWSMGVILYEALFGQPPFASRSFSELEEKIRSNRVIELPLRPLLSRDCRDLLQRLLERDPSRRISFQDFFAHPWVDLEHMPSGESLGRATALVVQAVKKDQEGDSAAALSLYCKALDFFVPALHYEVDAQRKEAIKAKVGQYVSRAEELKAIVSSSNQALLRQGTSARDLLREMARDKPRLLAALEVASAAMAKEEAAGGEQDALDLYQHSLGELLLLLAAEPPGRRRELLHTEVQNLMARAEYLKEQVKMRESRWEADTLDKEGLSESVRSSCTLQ
Chain of PAK2 (Q13177 whole entry): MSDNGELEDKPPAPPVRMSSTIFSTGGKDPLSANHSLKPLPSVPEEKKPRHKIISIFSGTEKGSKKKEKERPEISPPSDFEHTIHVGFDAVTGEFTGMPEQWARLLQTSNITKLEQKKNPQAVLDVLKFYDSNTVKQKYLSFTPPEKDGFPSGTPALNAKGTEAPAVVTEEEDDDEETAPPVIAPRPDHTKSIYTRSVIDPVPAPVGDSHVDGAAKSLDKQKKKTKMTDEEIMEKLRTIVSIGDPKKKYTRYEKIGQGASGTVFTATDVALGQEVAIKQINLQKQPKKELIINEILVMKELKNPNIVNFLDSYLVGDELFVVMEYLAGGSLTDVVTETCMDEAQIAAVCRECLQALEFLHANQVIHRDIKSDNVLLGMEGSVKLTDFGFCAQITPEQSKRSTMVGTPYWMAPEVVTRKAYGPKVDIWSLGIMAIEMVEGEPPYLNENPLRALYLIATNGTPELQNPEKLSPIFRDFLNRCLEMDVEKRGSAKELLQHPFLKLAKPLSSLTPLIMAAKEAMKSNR
T2 sequence (P62344 whole entry): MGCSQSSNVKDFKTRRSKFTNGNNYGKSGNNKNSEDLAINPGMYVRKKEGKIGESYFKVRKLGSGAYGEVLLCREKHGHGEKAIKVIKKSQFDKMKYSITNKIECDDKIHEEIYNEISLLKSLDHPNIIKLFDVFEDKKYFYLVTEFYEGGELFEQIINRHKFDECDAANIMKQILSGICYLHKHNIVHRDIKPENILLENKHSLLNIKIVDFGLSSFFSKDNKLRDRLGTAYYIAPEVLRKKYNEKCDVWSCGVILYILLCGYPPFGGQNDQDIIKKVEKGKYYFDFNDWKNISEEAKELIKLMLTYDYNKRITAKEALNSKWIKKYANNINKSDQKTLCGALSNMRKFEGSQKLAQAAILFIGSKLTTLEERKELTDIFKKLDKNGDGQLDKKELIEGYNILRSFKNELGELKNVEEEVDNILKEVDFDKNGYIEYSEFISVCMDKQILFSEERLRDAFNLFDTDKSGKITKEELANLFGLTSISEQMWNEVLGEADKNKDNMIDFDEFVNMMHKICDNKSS
Chain of SBK1 (Q52WX2 whole entry): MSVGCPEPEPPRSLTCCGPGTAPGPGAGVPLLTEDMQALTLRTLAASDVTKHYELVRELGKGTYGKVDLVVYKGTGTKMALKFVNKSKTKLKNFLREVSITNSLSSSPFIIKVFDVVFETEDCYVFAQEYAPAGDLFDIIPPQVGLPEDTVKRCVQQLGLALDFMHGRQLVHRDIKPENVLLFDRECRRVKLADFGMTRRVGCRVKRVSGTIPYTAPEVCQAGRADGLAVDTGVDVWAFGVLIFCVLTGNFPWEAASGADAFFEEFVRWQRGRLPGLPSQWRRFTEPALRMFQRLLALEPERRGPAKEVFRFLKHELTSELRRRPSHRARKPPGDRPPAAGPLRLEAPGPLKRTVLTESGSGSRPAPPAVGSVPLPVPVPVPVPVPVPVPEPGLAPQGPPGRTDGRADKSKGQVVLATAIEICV

## Oc1ccc(C2=Cc3ccc(O)cc3OC2)cc1 [compound 1, idronoxil]
[1]
  remaining binding at 10 µM: 95%
[2]
  remaining binding at 10 µM: 73%
[3]
  remaining binding at 10 µM: 34%
[4]
  remaining binding at 10 µM: 66%
[5]
  remaining binding at 10 µM: 100%
[6]
  remaining binding at 10 µM: 99%
[7]
  remaining binding at 10 µM: 73%
[8]
  remaining binding at 10 µM: 59%
[9]
  remaining binding at 10 µM: 82%
[10]
  remaining binding at 10 µM: 49%
[11]
  remaining binding at 10 µM: 78%
[12]
  remaining binding at 10 µM: 53%
[13]
  remaining binding at 10 µM: 80%
[14]
  remaining binding at 10 µM: 67%
[15]
  remaining binding at 10 µM: 88%
[16]
  remaining binding at 10 µM: 91%
[17]
  remaining binding at 10 µM: 76%
[18]
  remaining binding at 10 µM: 52%
[19]
  remaining binding at 10 µM: 100%
[20]
  remaining binding at 10 µM: 90%
